# Source: PMC6494879, “Drug resistance emergence in macaques administered cabotegravir long-acting for pre-exposure prophylaxis during acute SHIV infection” (Nature Communications, 2019)
# Legend:
# [1] = system: SIV integrase E92G (SIV IN RTV pseudovirus)
# [2] = system: SIV integrase G118R/A122T (SIV IN RTV pseudovirus); format: cell-based; details: G118R/A122T SIV integrase mutant
# [3] = system: SIV integrase E92Q/G140R (SIV IN RTV pseudovirus); format: cell-based; details: E92Q/G140R SIV integrase mutant
# [4] = system: SIV integrase G118R (SIV IN RTV pseudovirus); format: cell-based; details: G118R SIV integrase mutant
# RT-SHIV = assay: Plasma SHIV RNA (RT-PCR) in RT-SHIV-infected macaques treated with CAB LA; details: for Median VL treated: median of treated macaques
# Method: CAB LA (200 mg/mL injectable stock aqueous suspension) was given at a dose of 50 mg kg^−1 under anesthesia by intramuscular injection into the quadriceps. Volumes greater than 1.0 mL were divided into two injection sites.
smiles,measurement,setting,value
"C[C@H]1CO[C@@H]2Cn3cc(C(=O)NCc4ccc(F)cc4F)c(=O)c(O)c3C(=O)N12 [CAB, cabotegravir]",EC50,[1],4.2 nM
same,fold-change relative to wild type integrase,[1],3.5 fold
same,fold-change relative to wild type integrase,[2],> 840 fold
same,fold-change relative to wild type integrase,[3],> 840 fold
same,fold-change relative to wild type integrase,[4],> 840 fold
same,SHIV RNA copies/ml,"RT-SHIV; macaque 01D520, day 14",213778 copies/ml
same,SHIV RNA copies/ml,"RT-SHIV; macaque 01D520, day 16",25703 copies/ml
same,SHIV RNA copies/ml,"RT-SHIV; macaque 01D520, day 18",6247 copies/ml
same,SHIV RNA copies/ml,"RT-SHIV; macaque 01D520, day 22",1187 copies/ml
same,SHIV RNA copies/ml,"RT-SHIV; macaque 01D520, day 25",478 copies/ml
same,SHIV RNA copies/ml,"RT-SHIV; macaque 01D520, day 29",2040 copies/ml
same,SHIV RNA copies/ml,"RT-SHIV; macaque 01D520, day 32",390 copies/ml
same,SHIV RNA copies/ml,"RT-SHIV; macaque 01D520, day 36",49 copies/ml
same,SHIV RNA copies/ml,"RT-SHIV; macaque 01D520, day 39",316 copies/ml
same,SHIV RNA copies/ml,"RT-SHIV; macaque 01D520, day 43",144 copies/ml
same,SHIV RNA copies/ml,"RT-SHIV; macaque 01D520, day 46",49 copies/ml
same,SHIV RNA copies/ml,"RT-SHIV; macaque 01D520, day 50",49 copies/ml
same,SHIV RNA copies/ml,"RT-SHIV; macaque 01D520, day 53",71 copies/ml
same,SHIV RNA copies/ml,"RT-SHIV; macaque 01D520, day 57",49 copies/ml
same,SHIV RNA copies/ml,"RT-SHIV; macaque 01D520, day 60",49 copies/ml
same,SHIV RNA copies/ml,"RT-SHIV; macaque 01D520, day 64",49 copies/ml
same,SHIV RNA copies/ml,"RT-SHIV; macaque 01D520, day 67",250 copies/ml
same,SHIV RNA copies/ml,"RT-SHIV; macaque 10D181, day 14",179379 copies/ml
same,SHIV RNA copies/ml,"RT-SHIV; macaque 10D181, day 16",39172 copies/ml
same,SHIV RNA copies/ml,"RT-SHIV; macaque 10D181, day 18",9142 copies/ml
same,SHIV RNA copies/ml,"RT-SHIV; macaque 10D181, day 22",2006 copies/ml
same,SHIV RNA copies/ml,"RT-SHIV; macaque 10D181, day 25",507 copies/ml
same,SHIV RNA copies/ml,"RT-SHIV; macaque 10D181, day 29",2459 copies/ml
same,SHIV RNA copies/ml,"RT-SHIV; macaque 10D181, day 32",444 copies/ml
same,SHIV RNA copies/ml,"RT-SHIV; macaque 10D181, day 36",906 copies/ml
same,SHIV RNA copies/ml,"RT-SHIV; macaque 10D181, day 39",1839 copies/ml
same,SHIV RNA copies/ml,"RT-SHIV; macaque 10D181, day 43",2744 copies/ml
same,SHIV RNA copies/ml,"RT-SHIV; macaque 10D181, day 46",344 copies/ml
same,SHIV RNA copies/ml,"RT-SHIV; macaque 10D181, day 50",294 copies/ml
same,SHIV RNA copies/ml,"RT-SHIV; macaque 10D181, day 53",756 copies/ml
same,SHIV RNA copies/ml,"RT-SHIV; macaque 10D181, day 57",241 copies/ml
same,SHIV RNA copies/ml,"RT-SHIV; macaque 10D181, day 60",971 copies/ml
same,SHIV RNA copies/ml,"RT-SHIV; macaque 10D181, day 64",2139 copies/ml
same,SHIV RNA copies/ml,"RT-SHIV; macaque 33996, day 14",154663 copies/ml
same,SHIV RNA copies/ml,"RT-SHIV; macaque 33996, day 16",9000 copies/ml
same,SHIV RNA copies/ml,"RT-SHIV; macaque 33996, day 18",1964 copies/ml
same,SHIV RNA copies/ml,"RT-SHIV; macaque 33996, day 22",112 copies/ml
same,SHIV RNA copies/ml,"RT-SHIV; macaque 33996, day 25",141 copies/ml
same,SHIV RNA copies/ml,"RT-SHIV; macaque 33996, day 29",25 copies/ml
same,SHIV RNA copies/ml,"RT-SHIV; macaque 33996, day 32",55 copies/ml
same,SHIV RNA copies/ml,"RT-SHIV; macaque 33996, day 36",49 copies/ml
same,SHIV RNA copies/ml,"RT-SHIV; macaque 33996, day 39",49 copies/ml
same,SHIV RNA copies/ml,"RT-SHIV; macaque 33996, day 43",49 copies/ml
same,SHIV RNA copies/ml,"RT-SHIV; macaque 33996, day 46",49 copies/ml
same,SHIV RNA copies/ml,"RT-SHIV; macaque 33996, day 50",49 copies/ml
same,SHIV RNA copies/ml,"RT-SHIV; macaque 33996, day 53",49 copies/ml
same,SHIV RNA copies/ml,"RT-SHIV; macaque 33996, day 57",49 copies/ml
same,SHIV RNA copies/ml,"RT-SHIV; macaque 33996, day 60",14 copies/ml
same,SHIV RNA copies/ml,"RT-SHIV; macaque 33996, day 64",59 copies/ml
same,SHIV RNA copies/ml,"RT-SHIV; macaque 35451, day 14",32948 copies/ml
same,SHIV RNA copies/ml,"RT-SHIV; macaque 35451, day 16",24534 copies/ml
same,SHIV RNA copies/ml,"RT-SHIV; macaque 35451, day 18",5566 copies/ml
same,SHIV RNA copies/ml,"RT-SHIV; macaque 35451, day 22",189 copies/ml
same,SHIV RNA copies/ml,"RT-SHIV; macaque 35451, day 25",365 copies/ml
same,SHIV RNA copies/ml,"RT-SHIV; macaque 35451, day 29",487 copies/ml
same,SHIV RNA copies/ml,"RT-SHIV; macaque 35451, day 32",189 copies/ml
same,SHIV RNA copies/ml,"RT-SHIV; macaque 35451, day 36",262 copies/ml
same,SHIV RNA copies/ml,"RT-SHIV; macaque 35451, day 39",194 copies/ml
same,SHIV RNA copies/ml,"RT-SHIV; macaque 35451, day 43",240 copies/ml
same,SHIV RNA copies/ml,"RT-SHIV; macaque 35451, day 46",77 copies/ml
same,SHIV RNA copies/ml,"RT-SHIV; macaque 35451, day 50",318 copies/ml
same,SHIV RNA copies/ml,"RT-SHIV; macaque 35451, day 53",134 copies/ml
same,SHIV RNA copies/ml,"RT-SHIV; macaque 35451, day 57",132 copies/ml
same,SHIV RNA copies/ml,"RT-SHIV; macaque 35451, day 60",90 copies/ml
same,SHIV RNA copies/ml,"RT-SHIV; macaque 35451, day 64",800 copies/ml
same,SHIV RNA copies/ml,"RT-SHIV; macaque 35451, day 67",104 copies/ml
same,SHIV RNA copies/ml,"RT-SHIV; macaque CH54, day 14",680147 copies/ml
same,SHIV RNA copies/ml,"RT-SHIV; macaque CH54, day 16",142531 copies/ml
same,SHIV RNA copies/ml,"RT-SHIV; macaque CH54, day 18",87386 copies/ml
same,SHIV RNA copies/ml,"RT-SHIV; macaque CH54, day 22",4318 copies/ml
same,SHIV RNA copies/ml,"RT-SHIV; macaque CH54, day 25",279 copies/ml
same,SHIV RNA copies/ml,"RT-SHIV; macaque CH54, day 29",2506 copies/ml
same,SHIV RNA copies/ml,"RT-SHIV; macaque CH54, day 32",3049 copies/ml
same,SHIV RNA copies/ml,"RT-SHIV; macaque CH54, day 36",1291 copies/ml
same,SHIV RNA copies/ml,"RT-SHIV; macaque CH54, day 39",1031 copies/ml
same,SHIV RNA copies/ml,"RT-SHIV; macaque CH54, day 43",750 copies/ml
same,SHIV RNA copies/ml,"RT-SHIV; macaque CH54, day 46",485 copies/ml
same,SHIV RNA copies/ml,"RT-SHIV; macaque CH54, day 50",803 copies/ml
same,SHIV RNA copies/ml,"RT-SHIV; macaque CH54, day 53",49 copies/ml
same,SHIV RNA copies/ml,"RT-SHIV; macaque CH54, day 57",158 copies/ml
same,SHIV RNA copies/ml,"RT-SHIV; macaque CH54, day 60",2633 copies/ml
same,SHIV RNA copies/ml,"RT-SHIV; macaque CH54, day 64",1132 copies/ml
same,SHIV RNA copies/ml,"RT-SHIV; macaque CH54, day 67",4979 copies/ml
same,SHIV RNA copies/ml,"RT-SHIV; macaque CJ92, day 14",87372 copies/ml
same,SHIV RNA copies/ml,"RT-SHIV; macaque CJ92, day 16",9159 copies/ml
same,SHIV RNA copies/ml,"RT-SHIV; macaque CJ92, day 18",1727 copies/ml
same,SHIV RNA copies/ml,"RT-SHIV; macaque CJ92, day 22",101 copies/ml
same,SHIV RNA copies/ml,"RT-SHIV; macaque CJ92, day 25",49 copies/ml
same,SHIV RNA copies/ml,"RT-SHIV; macaque CJ92, day 29",423 copies/ml
same,SHIV RNA copies/ml,"RT-SHIV; macaque CJ92, day 32",300 copies/ml
same,SHIV RNA copies/ml,"RT-SHIV; macaque CJ92, day 36",57 copies/ml
same,SHIV RNA copies/ml,"RT-SHIV; macaque CJ92, day 39",270 copies/ml
same,SHIV RNA copies/ml,"RT-SHIV; macaque CJ92, day 43",49 copies/ml
same,SHIV RNA copies/ml,"RT-SHIV; macaque CJ92, day 46",108 copies/ml
same,SHIV RNA copies/ml,"RT-SHIV; macaque CJ92, day 50",163 copies/ml
same,SHIV RNA copies/ml,"RT-SHIV; macaque CJ92, day 53",49 copies/ml
same,SHIV RNA copies/ml,"RT-SHIV; macaque CJ92, day 57",49 copies/ml
same,SHIV RNA copies/ml,"RT-SHIV; macaque CJ92, day 60",49 copies/ml
same,SHIV RNA copies/ml,"RT-SHIV; macaque CJ92, day 64",49 copies/ml
same,SHIV RNA copies/ml,"RT-SHIV; macaque CJ92, day 67",50 copies/ml
same,Median VL treated,RT-SHIV; day 0,49 copies/ml
same,Median VL treated,RT-SHIV; day 2,21683 copies/ml
same,Median VL treated,RT-SHIV; day 4,196903 copies/ml
same,Median VL treated,RT-SHIV; day 7,674920 copies/ml
same,Median VL treated,RT-SHIV; day 9,6944678 copies/ml
same,Median VL treated,RT-SHIV; day 11,4288688 copies/ml
same,Median VL treated,RT-SHIV; day 14,167021 copies/ml
same,Median VL treated,RT-SHIV; day 16,25119 copies/ml
same,Median VL treated,RT-SHIV; day 18,5906 copies/ml
same,Median VL treated,RT-SHIV; day 22,688 copies/ml
same,Median VL treated,RT-SHIV; day 25,322 copies/ml
same,Median VL treated,RT-SHIV; day 29,1263 copies/ml
same,Median VL treated,RT-SHIV; day 32,345 copies/ml
same,Median VL treated,RT-SHIV; day 36,160 copies/ml
same,Median VL treated,RT-SHIV; day 39,293 copies/ml
same,Median VL treated,RT-SHIV; day 43,192 copies/ml
same,Median VL treated,RT-SHIV; day 46,92 copies/ml
same,Median VL treated,RT-SHIV; day 50,229 copies/ml
same,Median VL treated,RT-SHIV; day 53,60 copies/ml
same,Median VL treated,RT-SHIV; day 57,91 copies/ml
same,Median VL treated,RT-SHIV; day 60,69 copies/ml
same,Median VL treated,RT-SHIV; day 64,429 copies/ml
same,Median VL treated,RT-SHIV; day 67,85 copies/ml
same,Median VL treated,RT-SHIV; day 71,205 copies/ml
same,Median VL treated,RT-SHIV; day 74,49 copies/ml
same,Median VL treated,RT-SHIV; day 78,76 copies/ml
same,Median VL treated,RT-SHIV; day 81,64 copies/ml
same,Median VL treated,RT-SHIV; day 85,85 copies/ml
same,Median VL treated,RT-SHIV; day 88,61 copies/ml
same,Median VL treated,RT-SHIV; day 92,59 copies/ml
same,Median VL treated,RT-SHIV; day 95,80 copies/ml
same,Median VL treated,RT-SHIV; day 102,49 copies/ml
same,Median VL treated,RT-SHIV; day 106,61 copies/ml
same,Median VL treated,RT-SHIV; day 115,2657 copies/ml
same,Median VL treated,RT-SHIV; day 120,15539 copies/ml
same,Median VL treated,RT-SHIV; day 134,2817 copies/ml
same,Median VL treated,RT-SHIV; day 143,2103 copies/ml
same,Median VL treated,RT-SHIV; day 148,2164 copies/ml
same,Median VL treated,RT-SHIV; day 155,1667 copies/ml
same,Median VL treated,RT-SHIV; day 162,1714 copies/ml
same,Median VL treated,RT-SHIV; day 170,1307 copies/ml
same,Median VL treated,RT-SHIV; day 176,558 copies/ml
same,Median VL treated,RT-SHIV; day 183,4928 copies/ml
same,Median VL treated,RT-SHIV; day 190,6516 copies/ml
same,Median VL treated,RT-SHIV; day 197,8692 copies/ml
same,Median VL treated,RT-SHIV; day 204,9657 copies/ml
